The values that follow come from ChEMBL document CHEMBL5465560, “Selectivity Literature for EUbOPEN Chemogenomic Library” (2024).

The target in experiment [1] is Mitogen-activated protein kinase 4 (Homo sapiens) (UniProt P31152). Kind of experiment: Selectivity interaction (KinomeScan (DiscoverX)) EUB0000595a MAPK4. To be noted: at 10 µM.
In experiment [2] the target is T1, Serine/threonine-protein kinase PLK4 (Homo sapiens) (UniProt O00444).
T1 sequence (whole entry): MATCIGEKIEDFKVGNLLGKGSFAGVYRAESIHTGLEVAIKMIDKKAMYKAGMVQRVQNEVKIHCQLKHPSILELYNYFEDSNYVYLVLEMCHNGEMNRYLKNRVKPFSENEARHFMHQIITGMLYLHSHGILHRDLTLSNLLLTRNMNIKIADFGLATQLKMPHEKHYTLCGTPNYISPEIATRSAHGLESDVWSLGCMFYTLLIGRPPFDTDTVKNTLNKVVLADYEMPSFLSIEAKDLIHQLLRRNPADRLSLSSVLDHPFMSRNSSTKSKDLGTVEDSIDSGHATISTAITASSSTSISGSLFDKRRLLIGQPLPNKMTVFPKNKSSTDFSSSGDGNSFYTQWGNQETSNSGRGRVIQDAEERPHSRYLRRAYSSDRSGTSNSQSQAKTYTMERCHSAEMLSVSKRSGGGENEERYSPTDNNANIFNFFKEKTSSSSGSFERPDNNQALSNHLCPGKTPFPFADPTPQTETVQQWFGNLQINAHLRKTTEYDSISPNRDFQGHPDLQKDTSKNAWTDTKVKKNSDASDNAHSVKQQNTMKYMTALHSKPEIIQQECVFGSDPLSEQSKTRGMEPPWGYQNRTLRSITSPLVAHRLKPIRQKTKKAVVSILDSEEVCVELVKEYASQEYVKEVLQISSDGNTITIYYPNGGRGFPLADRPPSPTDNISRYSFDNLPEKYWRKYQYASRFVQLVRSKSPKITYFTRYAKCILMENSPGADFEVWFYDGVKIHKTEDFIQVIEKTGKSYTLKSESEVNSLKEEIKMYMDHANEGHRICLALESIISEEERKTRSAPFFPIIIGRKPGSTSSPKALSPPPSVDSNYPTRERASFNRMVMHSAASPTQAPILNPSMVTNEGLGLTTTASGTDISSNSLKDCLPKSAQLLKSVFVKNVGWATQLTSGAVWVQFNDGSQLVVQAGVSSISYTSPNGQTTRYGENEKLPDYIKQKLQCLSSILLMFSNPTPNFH
Conditions: at 10 µM.

For experiment [3], the target named is Calcium/calmodulin-dependent protein kinase type 1 (Homo sapiens) (UniProt Q14012). Kind of experiment: Selectivity interaction (ActivX KiNativ screen (kinase selectivity in THP-1 cell lysates)) EUB0000639a CAMK1. The class given is subcellular. To be noted: lysate, at 0.04 µM.
In experiment [4] the target is T2, Ephrin type-A receptor 8 (Homo sapiens) (UniProt P29322).
T2 sequence (whole entry): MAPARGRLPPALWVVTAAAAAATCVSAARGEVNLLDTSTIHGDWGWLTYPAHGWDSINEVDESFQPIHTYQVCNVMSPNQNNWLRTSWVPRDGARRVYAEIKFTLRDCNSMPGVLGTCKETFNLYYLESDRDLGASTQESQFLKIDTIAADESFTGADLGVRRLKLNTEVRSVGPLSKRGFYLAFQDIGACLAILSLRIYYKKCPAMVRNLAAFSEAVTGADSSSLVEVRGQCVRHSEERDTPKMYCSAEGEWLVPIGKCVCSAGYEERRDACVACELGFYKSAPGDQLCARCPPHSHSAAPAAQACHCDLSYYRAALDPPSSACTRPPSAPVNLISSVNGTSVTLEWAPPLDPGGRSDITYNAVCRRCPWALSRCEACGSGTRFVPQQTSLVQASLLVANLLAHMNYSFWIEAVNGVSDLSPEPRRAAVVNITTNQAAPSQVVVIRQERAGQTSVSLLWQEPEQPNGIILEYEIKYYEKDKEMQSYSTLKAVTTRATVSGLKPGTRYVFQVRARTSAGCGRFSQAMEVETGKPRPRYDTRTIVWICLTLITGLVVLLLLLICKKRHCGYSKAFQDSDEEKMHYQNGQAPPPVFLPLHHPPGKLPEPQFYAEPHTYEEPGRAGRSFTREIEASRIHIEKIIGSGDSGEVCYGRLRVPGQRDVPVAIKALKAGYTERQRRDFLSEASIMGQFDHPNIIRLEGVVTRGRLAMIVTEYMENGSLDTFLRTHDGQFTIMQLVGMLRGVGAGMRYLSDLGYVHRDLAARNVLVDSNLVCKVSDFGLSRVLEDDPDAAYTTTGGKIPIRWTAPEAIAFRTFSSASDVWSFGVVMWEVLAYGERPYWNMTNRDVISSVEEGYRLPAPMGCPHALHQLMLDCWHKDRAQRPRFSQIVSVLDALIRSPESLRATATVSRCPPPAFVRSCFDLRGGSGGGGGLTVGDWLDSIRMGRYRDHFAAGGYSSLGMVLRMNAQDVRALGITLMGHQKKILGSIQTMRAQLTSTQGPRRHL
Kind of experiment: Selectivity interaction (KinomeScan (DiscoverX)) EUB0000655a EPHA8. Conditions: at 10 µM.

In experiment [5] the target is Receptor-interacting serine/threonine-protein kinase 2 (Homo sapiens, UniProt O43353). Kind of experiment: Selectivity interaction (KinomeScan (DiscoverX)) EUB0000092b RIPK2. To be noted: at 10 µM.
Experiment [6] has as its target STE20-like serine/threonine-protein kinase (Homo sapiens, UniProt Q9H2G2). In words: Selectivity interaction (KinomeScan (DiscoverX)) EUB0001079a SLK. Conditions: at 1 µM.
The target of experiment [7] is Tyrosine-protein kinase Fes/Fps (Homo sapiens) (UniProt P07332). In words: Selectivity interaction (KinomeScan (DiscoverX)) EUB0000229b FES. Conditions: at 10 µM.
The target in experiment [8] is Fibroblast growth factor receptor 2 (Homo sapiens) (UniProt P21802). Kind of experiment: Selectivity interaction (KinomeScan (DiscoverX)) EUB0000229b FGFR2. To be noted: at 10 µM.
Experiment [9] deals with T3, Dual specificity mitogen-activated protein kinase kinase 3 (Homo sapiens) (UniProt P46734).
T3 sequence (whole entry): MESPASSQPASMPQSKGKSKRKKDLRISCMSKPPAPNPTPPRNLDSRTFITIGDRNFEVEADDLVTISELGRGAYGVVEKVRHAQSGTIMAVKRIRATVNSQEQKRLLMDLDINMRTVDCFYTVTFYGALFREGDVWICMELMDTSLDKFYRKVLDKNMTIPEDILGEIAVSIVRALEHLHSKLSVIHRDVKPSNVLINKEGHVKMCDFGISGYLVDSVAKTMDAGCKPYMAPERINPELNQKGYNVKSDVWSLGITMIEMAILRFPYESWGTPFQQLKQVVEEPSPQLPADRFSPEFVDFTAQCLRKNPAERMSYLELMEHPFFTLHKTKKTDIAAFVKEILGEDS
Kind of experiment: Selectivity interaction (Kinase panel (KiNativ target engagement assay in Jurkat cells)) EUB0001635a MAP2K3. It is filed as cell-based. To be noted: at 1 µM.

Chain of Tyrosine-protein kinase Fes/Fps (Homo sapiens) (P07332 whole entry): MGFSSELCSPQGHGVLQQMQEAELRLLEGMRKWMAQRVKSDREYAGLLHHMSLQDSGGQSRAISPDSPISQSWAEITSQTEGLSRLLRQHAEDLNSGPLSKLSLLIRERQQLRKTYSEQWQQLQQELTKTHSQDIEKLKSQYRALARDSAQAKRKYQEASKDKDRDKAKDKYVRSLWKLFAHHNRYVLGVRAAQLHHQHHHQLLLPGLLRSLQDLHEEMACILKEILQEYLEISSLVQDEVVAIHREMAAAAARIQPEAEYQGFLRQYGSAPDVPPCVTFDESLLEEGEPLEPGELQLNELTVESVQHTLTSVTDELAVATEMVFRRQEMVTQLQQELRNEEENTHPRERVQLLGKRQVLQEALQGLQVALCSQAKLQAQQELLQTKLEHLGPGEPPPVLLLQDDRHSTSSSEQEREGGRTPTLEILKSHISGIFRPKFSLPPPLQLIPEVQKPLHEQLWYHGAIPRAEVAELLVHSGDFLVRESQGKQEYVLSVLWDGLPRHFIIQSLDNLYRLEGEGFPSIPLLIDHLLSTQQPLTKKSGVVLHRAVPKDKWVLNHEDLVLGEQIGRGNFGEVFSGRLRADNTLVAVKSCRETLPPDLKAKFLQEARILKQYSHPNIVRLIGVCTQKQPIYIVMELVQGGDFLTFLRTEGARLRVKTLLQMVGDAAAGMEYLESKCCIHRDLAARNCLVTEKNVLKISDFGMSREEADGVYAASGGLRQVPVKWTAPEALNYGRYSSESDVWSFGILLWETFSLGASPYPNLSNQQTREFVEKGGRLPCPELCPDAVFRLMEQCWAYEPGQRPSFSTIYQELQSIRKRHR
Chain of Calcium/calmodulin-dependent protein kinase type 1 (Homo sapiens) (Q14012 whole entry, looked up): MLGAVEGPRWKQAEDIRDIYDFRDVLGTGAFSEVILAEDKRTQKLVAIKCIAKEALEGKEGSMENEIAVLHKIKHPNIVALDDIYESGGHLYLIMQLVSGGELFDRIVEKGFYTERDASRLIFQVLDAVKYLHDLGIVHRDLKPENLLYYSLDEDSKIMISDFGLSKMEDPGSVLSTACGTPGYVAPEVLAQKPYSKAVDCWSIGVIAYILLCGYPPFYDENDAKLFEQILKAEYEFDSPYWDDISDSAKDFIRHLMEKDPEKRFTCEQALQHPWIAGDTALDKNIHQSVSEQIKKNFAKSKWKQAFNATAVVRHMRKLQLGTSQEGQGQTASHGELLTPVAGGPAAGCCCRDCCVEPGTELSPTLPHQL
Chain of STE20-like serine/threonine-protein kinase (Q9H2G2 whole entry, looked up): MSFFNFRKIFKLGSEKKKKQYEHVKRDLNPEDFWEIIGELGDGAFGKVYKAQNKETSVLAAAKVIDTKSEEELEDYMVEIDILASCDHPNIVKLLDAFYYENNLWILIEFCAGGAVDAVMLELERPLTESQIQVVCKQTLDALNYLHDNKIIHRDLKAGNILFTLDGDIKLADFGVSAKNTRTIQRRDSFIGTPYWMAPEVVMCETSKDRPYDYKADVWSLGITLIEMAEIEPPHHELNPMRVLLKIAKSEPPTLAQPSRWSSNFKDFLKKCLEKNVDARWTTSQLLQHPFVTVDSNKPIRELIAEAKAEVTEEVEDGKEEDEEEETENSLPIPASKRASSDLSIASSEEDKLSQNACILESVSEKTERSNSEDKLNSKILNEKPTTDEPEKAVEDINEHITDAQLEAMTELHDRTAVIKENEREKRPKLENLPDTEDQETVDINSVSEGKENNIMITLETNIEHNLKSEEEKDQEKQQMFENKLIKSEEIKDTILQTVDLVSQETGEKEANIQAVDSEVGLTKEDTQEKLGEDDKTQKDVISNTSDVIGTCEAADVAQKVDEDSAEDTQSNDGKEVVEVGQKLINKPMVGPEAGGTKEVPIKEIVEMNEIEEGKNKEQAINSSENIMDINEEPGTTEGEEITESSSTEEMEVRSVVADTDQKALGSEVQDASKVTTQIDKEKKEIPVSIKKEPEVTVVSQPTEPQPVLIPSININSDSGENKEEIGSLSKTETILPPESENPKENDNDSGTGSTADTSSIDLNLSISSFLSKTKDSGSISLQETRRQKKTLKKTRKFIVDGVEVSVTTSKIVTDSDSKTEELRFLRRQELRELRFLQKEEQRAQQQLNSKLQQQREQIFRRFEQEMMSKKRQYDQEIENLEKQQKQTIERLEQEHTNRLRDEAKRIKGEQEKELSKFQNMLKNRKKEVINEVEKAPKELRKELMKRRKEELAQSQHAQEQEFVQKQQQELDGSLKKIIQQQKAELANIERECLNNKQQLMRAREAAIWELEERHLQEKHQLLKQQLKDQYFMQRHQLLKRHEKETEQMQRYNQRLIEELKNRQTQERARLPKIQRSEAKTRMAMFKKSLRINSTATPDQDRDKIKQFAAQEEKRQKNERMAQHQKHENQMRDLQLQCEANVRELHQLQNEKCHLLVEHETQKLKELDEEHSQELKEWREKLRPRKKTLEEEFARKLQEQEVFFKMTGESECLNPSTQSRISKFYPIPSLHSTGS
Chain of Mitogen-activated protein kinase 4 (Homo sapiens) (P31152 whole entry): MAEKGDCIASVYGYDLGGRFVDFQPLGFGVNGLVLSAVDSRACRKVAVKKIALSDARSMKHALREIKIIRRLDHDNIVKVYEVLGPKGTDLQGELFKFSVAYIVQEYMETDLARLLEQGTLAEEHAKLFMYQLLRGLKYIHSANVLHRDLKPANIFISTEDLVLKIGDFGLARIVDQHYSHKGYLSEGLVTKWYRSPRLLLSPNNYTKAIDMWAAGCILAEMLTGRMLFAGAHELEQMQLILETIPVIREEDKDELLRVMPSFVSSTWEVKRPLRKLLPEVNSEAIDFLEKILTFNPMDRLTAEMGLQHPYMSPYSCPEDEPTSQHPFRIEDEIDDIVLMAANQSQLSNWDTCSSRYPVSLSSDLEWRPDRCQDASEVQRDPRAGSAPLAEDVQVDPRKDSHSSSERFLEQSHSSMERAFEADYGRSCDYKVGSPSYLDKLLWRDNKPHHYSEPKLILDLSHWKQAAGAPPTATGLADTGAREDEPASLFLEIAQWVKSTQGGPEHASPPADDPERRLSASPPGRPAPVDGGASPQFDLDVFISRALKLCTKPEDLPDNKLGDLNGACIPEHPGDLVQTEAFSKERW
Chain of Fibroblast growth factor receptor 2 (Homo sapiens) (P21802 22-821 limits assumed): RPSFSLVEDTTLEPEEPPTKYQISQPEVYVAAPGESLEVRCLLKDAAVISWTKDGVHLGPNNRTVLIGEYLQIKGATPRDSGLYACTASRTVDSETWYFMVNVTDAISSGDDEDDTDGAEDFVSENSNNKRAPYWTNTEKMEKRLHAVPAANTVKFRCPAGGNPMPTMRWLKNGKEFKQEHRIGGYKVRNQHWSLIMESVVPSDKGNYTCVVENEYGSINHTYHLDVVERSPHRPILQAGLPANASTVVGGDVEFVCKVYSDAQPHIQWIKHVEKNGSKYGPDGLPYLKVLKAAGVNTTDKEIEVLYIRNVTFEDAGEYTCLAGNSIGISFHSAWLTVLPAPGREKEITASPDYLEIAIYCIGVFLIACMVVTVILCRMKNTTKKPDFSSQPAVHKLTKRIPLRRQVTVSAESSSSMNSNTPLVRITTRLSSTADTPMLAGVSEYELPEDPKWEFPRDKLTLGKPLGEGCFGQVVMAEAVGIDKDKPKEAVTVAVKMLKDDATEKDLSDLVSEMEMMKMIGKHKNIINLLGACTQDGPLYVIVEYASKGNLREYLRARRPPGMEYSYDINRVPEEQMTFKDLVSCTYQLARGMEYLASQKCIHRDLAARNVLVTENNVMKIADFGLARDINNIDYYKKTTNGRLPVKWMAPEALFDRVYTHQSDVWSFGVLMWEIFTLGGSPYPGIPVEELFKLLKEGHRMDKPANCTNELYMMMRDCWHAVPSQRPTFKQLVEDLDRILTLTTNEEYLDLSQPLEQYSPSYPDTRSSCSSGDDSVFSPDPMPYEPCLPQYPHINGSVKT
Chain of Receptor-interacting serine/threonine-protein kinase 2 (O43353 whole entry): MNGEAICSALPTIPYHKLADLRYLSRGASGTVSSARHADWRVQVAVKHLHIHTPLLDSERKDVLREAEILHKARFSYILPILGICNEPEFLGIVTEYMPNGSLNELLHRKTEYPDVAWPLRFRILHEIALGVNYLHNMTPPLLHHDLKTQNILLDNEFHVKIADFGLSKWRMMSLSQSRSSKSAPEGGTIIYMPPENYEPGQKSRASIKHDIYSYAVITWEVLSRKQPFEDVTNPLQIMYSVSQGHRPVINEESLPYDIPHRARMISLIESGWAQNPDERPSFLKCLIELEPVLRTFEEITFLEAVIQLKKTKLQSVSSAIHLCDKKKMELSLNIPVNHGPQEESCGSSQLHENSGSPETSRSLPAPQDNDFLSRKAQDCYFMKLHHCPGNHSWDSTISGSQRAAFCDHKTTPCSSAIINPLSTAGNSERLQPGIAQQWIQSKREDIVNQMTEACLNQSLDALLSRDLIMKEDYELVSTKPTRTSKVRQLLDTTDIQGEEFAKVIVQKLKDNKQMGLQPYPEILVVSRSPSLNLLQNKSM

`COCC(=O)NC/C=C/c1ccc2ncnc(Nc3ccc(Oc4ccc(C)nc4)c(C)c3)c2c1` [CP-724714] yielded a % of control in experiment [1] of 100%. In turn, `Cc1cc([C@@H](C)Nc2ccccc2C(=O)O)c2nc(N3CCOCC3)cc(=O)n2c1` [AZD-6482] gave a % of control in experiment [2] of 100%. In the case of `CC[C@@H]1[C@H](F)C(=O)N[C@@H]1COc1nccc2cc(C(N)=O)c(OC)cc12` [ZIMLOVISERTIB], in [3], the % of inhibition was -6.2%. With `CN(C)CCOc1ccc(-c2nc(-c3ccncc3)c(-c3ccc4c(c3)CC/C4=N\O)[nH]2)cc1`, in experiment [4], the % of control was 100%. Compound `CCC(=O)N1CCN(c2ccc(-n3c(=O)ccc4cnc5ccc(-c6cnc7ccccc7c6)cc5c43)cc2C(F)(F)F)CC1` yielded a % of control in experiment [5] of 44%. In [6], `Nc1cnc(N2CCc3cc(S(=O)(=O)Nc4c(F)cc(Cl)cc4F)cc(N4CCCC4=O)c32)nc1` [TP-020n] returned a % of control of 100%. Take `COc1cc(N(C)c2ccnc3ccc(C(F)(F)F)cc23)cc(OC)c1OC`: the % binding in [7] and in experiment [8] was 100% each time. Consider `C=CC(=O)Nc1ccc(C(=O)Nc2[nH]nc3c2CN(C(=O)N[C@H](CN(C)C)c2ccccc2)C3(C)C)cc1`, for which the % of engagement in experiment [9] (Selectivity number of off-targets 0.0, Selectivity number of targets 233.0, Source Knowledge https://www.sciencedirect.com/science/article/pii/S2451945619300674?via%3Dihub) is 8.4%; in experiment [9] it was -7.7%.
